Results from US20130137772A1, “HYDROXYPOLYAMINE SALTS” (priority 2011, published 2013).
Where “and” joins values, the source holds several entries; their conditions need not be identical. Equal entries are not always repeated. Each block holds one molecule with its values, some of them ahead of it.

Assay: Tissue distribution and metabolism: polyamine content of kidney, liver and pancreas via HPLC
Assay type: in vivo, Female CD-1 mice
Experimental: The tissue distribution and metabolism of DEHSPM, (HO)2DEHSPM HCl Salt and (HO)2DEHSPM Mesylate Salt in various organs were evaluated utilizing the following protocol:
Tissue Distribution and Metabolism of DEHSPM, (HO)2DEHSPM HCl Salt and (HO)2DEHSPM Mesylate Salt
• 1) DEHSPM, (HO)2DEHSPM HCl salt, and (HO)2DEHSPM mesylate salt were dissolved in sterile normal saline; the pH was not adjusted. • 2) Female CD-1 mice were given the drugs at equimolar dosages intraperitoneally once daily for 5 days. • 3) The animals, n=3-4 per group, were euthanized 4, 8, or 24 h post-last dose. • 4) The kidney, liver, and pancreas were removed and assessed for their polyamine content via HPLC analysis. • 5) The polyamine concentration data (mean±STD) are expressed as nmol/g wet weight of tissue. SPM, spermine; SPD, spermidine; PUT, putrescine; N.D., not determined. • 6) A one-tailed t test assuming unequal variance was performed on the tissue polyamine concentration data. A value of p<0.05 was considered significant.

[1] = kidney, 4 h post-last dose, HCl salt 20 mg/kg/d IP x 5 d
[2] = kidney, 8 h post-last dose, HCl salt 20 mg/kg/d IP x 5 d
[3] = kidney, 24 h post-last dose, HCl salt 20 mg/kg/d IP x 5 d
[4] = liver, 4 h post-last dose, HCl salt 20 mg/kg/d IP x 5 d
[5] = liver, 8 h post-last dose, HCl salt 20 mg/kg/d IP x 5 d
[6] = liver, 24 h post-last dose, HCl salt 20 mg/kg/d IP x 5 d
[7] = liver, 24 h post-last dose, HCl salt 20 mg/kg/d IP x 5 d, listed as (HO)2DEHSPM•4HCl Salt
[8] = pancreas, 4 h post-last dose, HCl salt 20 mg/kg/d IP x 5 d
[9] = pancreas, 8 h post-last dose, HCl salt 20 mg/kg/d IP x 5 d
[10] = pancreas, 24 h post-last dose, HCl salt 20 mg/kg/d IP x 5 d
[11] = kidney, 4 h post-last dose, mesylate salt 30.3 mg/kg/d IP x 5 d
[12] = kidney, 8 h post-last dose, mesylate salt 30.3 mg/kg/d IP x 5 d
[13] = kidney, 24 h post-last dose, mesylate salt 30.3 mg/kg/d IP x 5 d
[14] = liver, 4 h post-last dose, mesylate salt 30.3 mg/kg/d IP x 5 d
[15] = liver, 8 h post-last dose, mesylate salt 30.3 mg/kg/d IP x 5 d
[16] = liver, 24 h post-last dose, mesylate salt 30.3 mg/kg/d IP x 5 d
[17] = pancreas, 4 h post-last dose, mesylate salt 30.3 mg/kg/d IP x 5 d
[18] = pancreas, 8 h post-last dose, mesylate salt 30.3 mg/kg/d IP x 5 d
[19] = pancreas, 24 h post-last dose, mesylate salt 30.3 mg/kg/d IP x 5 d

(HO)2DEHSPM 4HCl Salt concentration [1]: 852 ± 202 nmol/g wet weight of tissue
(HO)2HSPM concentration [1]: 50 ± 19 nmol/g wet weight of tissue
(HO)2DEHSPM 4HCl Salt concentration [2]: 871 ± 85 nmol/g wet weight of tissue
(HO)2HSPM concentration [2]: 70 ± 6 nmol/g wet weight of tissue
(HO)2DEHSPM 4HCl Salt concentration [3]: 618 ± 82 nmol/g wet weight of tissue
(HO)2HSPM concentration [3]: 76 ± 7 nmol/g wet weight of tissue
(HO)2DEHSPM 4HCl Salt concentration [4]: 248 ± 17 nmol/g wet weight of tissue
(HO)2HSPM concentration [4]: 70 ± 5 nmol/g wet weight of tissue
(HO)2DEHSPM 4HCl Salt concentration [5]: 228 ± 55 nmol/g wet weight of tissue
(HO)2HSPM concentration [5]: 103 ± 14 nmol/g wet weight of tissue
(HO)2DEHSPM 4HCl Salt concentration [6]: 136 ±50 nmol/g wet weight of tissue
(HO)2HSPM concentration [6]: 102 ± 13 nmol/g wet weight of tissue
(HO)2DEHSPM 4HCl Salt concentration [7]: 136 ± 50 nmol/g wet weight of tissue
(HO)2DEHSPM 4HCl Salt concentration [8]: 217 ± 27 nmol/g wet weight of tissue
(HO)2HSPM concentration [8]: 56 ± 11 nmol/g wet weight of tissue
(HO)2DEHSPM 4HCl Salt concentration [9]: 223 ± 54 nmol/g wet weight of tissue
(HO)2HSPM concentration [9]: 60 ± 9 nmol/g wet weight of tissue
(HO)2DEHSPM 4HCl Salt concentration [10]: 209 ± 37 nmol/g wet weight of tissue
(HO)2HSPM concentration [10]: 58 ± 14 nmol/g wet weight of tissue
SMILES: CCNCCC(O)CNCCCCNCC(O)CCNCC.Cl.Cl.Cl.Cl (stereo not shown) [(HO)2DEHSPM HCl Salt]
PUT concentration [1]: 31 ± 27 nmol/g wet weight of tissue
SPD concentration [1]: 327 ± 86 nmol/g wet weight of tissue
SPM concentration [1]: 544 nmol/g wet weight of tissue
SPM concentration (kidney, 4 h post-last dose, HCl salt 20 mg/kg/d IP x 5 d, listed as (HO)2DEHSPM•4HCl Salt): 544 ± 14 nmol/g wet weight of tissue
PUT concentration [2]: 29 ± 5 nmol/g wet weight of tissue
SPD concentration [2]: 275 ± 16 nmol/g wet weight of tissue
SPM concentration [2]: 641 nmol/g wet weight of tissue
SPM concentration (kidney, 8 h post-last dose, HCl salt 20 mg/kg/d IP x 5 d, listed as (HO)2DEHSPM•4HCl Salt): 641 ± 33 nmol/g wet weight of tissue
PUT concentration [3]: 28 ± 6 nmol/g wet weight of tissue
SPD concentration [3]: 304 ± 30 nmol/g wet weight of tissue
SPM concentration [3]: 588 nmol/g wet weight of tissue
SPM concentration (kidney, 24 h post-last dose, HCl salt 20 mg/kg/d IP x 5 d, listed as (HO)2DEHSPM•4HCl Salt): 588 ± 5 nmol/g wet weight of tissue
PUT concentration [4]: 0 ± 0 nmol/g wet weight of tissue
SPD concentration [4]: 1050 ± 9 nmol/g wet weight of tissue
SPM concentration [4]: 875 nmol/g wet weight of tissue
SPM concentration (liver, 4 h post-last dose, HCl salt 20 mg/kg/d IP x 5 d, listed as (HO)2DEHSPM•4HCl Salt): 875 ± 128 nmol/g wet weight of tissue
PUT concentration [5]: 20 ± 17 nmol/g wet weight of tissue
SPD concentration [5]: 1175 ± 190 nmol/g wet weight of tissue
SPM concentration [5]: 1071 nmol/g wet weight of tissue
SPM concentration (liver, 8 h post-last dose, HCl salt 20 mg/kg/d IP x 5 d, listed as (HO)2DEHSPM•4HCl Salt): 1071 ± 7 nmol/g wet weight of tissue
PUT concentration [6]: 7 ± 14 nmol/g wet weight of tissue
SPD concentration [6]: 884 ± 156 nmol/g wet weight of tissue
SPM concentration [6]: 837 nmol/g wet weight of tissue
SPM concentration [7]: 837 ± 13 nmol/g wet weight of tissue
PUT concentration [8]: 32 ± 3 nmol/g wet weight of tissue
SPD concentration [8]: 5868 ± 505 nmol/g wet weight of tissue
SPM concentration [8]: 1153 nmol/g wet weight of tissue and 1153 ± 159 nmol/g wet weight of tissue
PUT concentration [9]: 50 ± 7 nmol/g wet weight of tissue
SPD concentration [9]: 6343 ± 596 nmol/g wet weight of tissue
SPM concentration [9]: 1476 nmol/g wet weight of tissue and 1476 ± 101 nmol/g wet weight of tissue
PUT concentration [10]: 36 ± 5 nmol/g wet weight of tissue
SPD concentration [10]: 6386 ± 309 nmol/g wet weight of tissue
SPM concentration [10]: 1177 nmol/g wet weight of tissue and 1177 ± 161 nmol/g wet weight of tissue

(HO)2DEHSPM Mesylate concentration [11]: 541 ± 65 nmol/g wet weight of tissue
(HO)2HSPM concentration [11]: 77 ± 6 nmol/g wet weight of tissue
(HO)2DEHSPM Mesylate concentration [12]: 533 ± 84 nmol/g wet weight of tissue
(HO)2HSPM concentration [12]: 89 ± 14 nmol/g wet weight of tissue
(HO)2DEHSPM Mesylate concentration [13]: 360 ± 43 nmol/g wet weight of tissue
(HO)2HSPM concentration [13]: 97 ± 5 nmol/g wet weight of tissue
(HO)2DEHSPM Mesylate concentration [14]: 168 ± 32 nmol/g wet weight of tissue
(HO)2HSPM concentration [14]: 79 ± 7 nmol/g wet weight of tissue
(HO)2DEHSPM Mesylate concentration [15]: 135 ± 3 nmol/g wet weight of tissue
(HO)2HSPM concentration [15]: 116 ± 15 nmol/g wet weight of tissue
(HO)2DEHSPM Mesylate concentration [16]: 73 ± 11 nmol/g wet weight of tissue
(HO)2HSPM concentration [16]: 88 ± 5 nmol/g wet weight of tissue
(HO)2DEHSPM Mesylate concentration [17]: 131 ± 27 nmol/g wet weight of tissue
(HO)2HSPM concentration [17]: 50 ± 6 nmol/g wet weight of tissue
(HO)2DEHSPM Mesylate concentration [18]: 153 ± 11 nmol/g wet weight of tissue
(HO)2HSPM concentration [18]: 70 ± 2 nmol/g wet weight of tissue
(HO)2DEHSPM Mesylate concentration [19]: 134 ± 14 nmol/g wet weight of tissue
(HO)2HSPM concentration [19]: 75 ± 4 nmol/g wet weight of tissue
SMILES: CCNCCC(O)CNCCCCNCC(O)CCNCC.CS(=O)(=O)O.CS(=O)(=O)O.CS(=O)(=O)O.CS(=O)(=O)O (stereo not shown) [(HO)2DEHSPM Mesylate Salt]
PUT concentration [11]: 7 ± 12 nmol/g wet weight of tissue
SPD concentration [11]: 404 ± 24 nmol/g wet weight of tissue
SPM concentration [11]: 680 nmol/g wet weight of tissue and 680 ± 15 nmol/g wet weight of tissue
PUT concentration [12]: 0 ± 0 nmol/g wet weight of tissue
SPD concentration [12]: 265 ± 5 nmol/g wet weight of tissue
SPM concentration [12]: 655 nmol/g wet weight of tissue and 655 ± 41 nmol/g wet weight of tissue
PUT concentration [13]: 26 ± 5 nmol/g wet weight of tissue
SPD concentration [13]: 239 ± 9 nmol/g wet weight of tissue
SPM concentration [13]: 601 nmol/g wet weight of tissue and 601 ± 29 nmol/g wet weight of tissue
PUT concentration [14]: 0 ± 0 nmol/g wet weight of tissue
SPD concentration [14]: 1044 ± 177 nmol/g wet weight of tissue
SPM concentration [14]: 908 nmol/g wet weight of tissue and 908 ± 55 nmol/g wet weight of tissue
PUT concentration [15]: 0 ± 0 nmol/g wet weight of tissue
SPD concentration [15]: 1108 ± 146 nmol/g wet weight of tissue
SPM concentration [15]: 987 nmol/g wet weight of tissue and 987 ± 49 nmol/g wet weight of tissue
PUT concentration [16]: 0 ± 0 nmol/g wet weight of tissue
SPD concentration [16]: 910 ±10 nmol/g wet weight of tissue
SPM concentration [16]: 807 nmol/g wet weight of tissue and 807 ± 138 nmol/g wet weight of tissue
PUT concentration [17]: 36 ± 10 nmol/g wet weight of tissue
SPD concentration [17]: 5717 ± 426 nmol/g wet weight of tissue
SPM concentration [17]: 1108 nmol/g wet weight of tissue and 1108 ± 15 nmol/g wet weight of tissue
PUT concentration [18]: 57 ± 15 nmol/g wet weight of tissue
SPD concentration [18]: 6460 ± 280 nmol/g wet weight of tissue
SPM concentration [18]: 1333 nmol/g wet weight of tissue and 1333 ± 103 nmol/g wet weight of tissue
PUT concentration [19]: 31 ± 3 nmol/g wet weight of tissue
SPD concentration [19]: 6147 ± 223 nmol/g wet weight of tissue
SPM concentration [19]: 1273 ± 210 nmol/g wet weight of tissue
